# Measured values from ChEMBL document CHEMBL1150986, “Tripeptidyl pyridinium methyl ketones as potent active site inhibitors of thrombin” (Bioorg Med Chem Lett, 1996).
# How the values were obtained:
# [1] = biological target: T1, Prothrombin (Homo sapiens, UniProt P00734); experiment: Compound was measured for the inhibition of alpha-human thrombin by clotting test
# [2] = biological target: T1, Prothrombin; experiment: Compound was measured for the inhibition of alpha-human thrombin by amidolytic assay
SMILES,Ki [1],IC50 [2]
CC(=O)[C@H](CCCN=C(N)N)NC(=O)[C@@H]1CCCN1C(=O)[C@H](N)CC1CCCCC1,0.06 µM,0.41 µM
N=C(N)NCCC[C@H](NC(=O)[C@@H]1CCCN1C(=O)[C@H](N)CC1CCCCC1)C(=O)Cc1ccccc1,0.00125 µM,0.0099 µM
N=C(N)NCCC[C@H](NC(=O)[C@@H]1CCCN1C(=O)[C@H](N)CC1CCCCC1)C(=O)C[n+]1ccccc1,0.00019 µM,0.0017 µM

# Next, values leading:
Ki [1],IC50 [2],SMILES
0.021 µM,0.18 µM,CC(=O)N[C@H](CC1CCCCC1)C(=O)N1CCC[C@H]1C(=O)N[C@@H](CCCN=C(N)N)C(=O)C[n+]1ccccc1
0.185 µM,0.63 µM,CC(=O)N[C@H](CC1CCCCC1)C(=O)N1CCC[C@H]1C(=O)N[C@@H](CCCN=C(N)N)C(=O)Cc1ccccc1
0.31 µM,2.7 µM,CC(=O)N[C@H](Cc1ccccc1)C(=O)N1CCC[C@H]1C(=O)N[C@@H](CCCNC(=N)N)C(=O)C[n+]1ccccc1
